Data taken from patent publication US20010034448A1, “New compounds, their preparation and use” (priority 1998, published 2001).

Experiments:
ob/ob and db/db mice = conditions: Mukherjee et al., Nature 1997; cited from earlier work
RXR/PPAR heterodimers = conditions: Mukherjee et al., Nature 1997, 386, 407-410; WO 97/10819; cited from earlier work
RAR = conditions: Heyman et al. Cell 1992, 68, 397-406; cited from earlier work

SMILES: Cc1cc2c(cc1C1(c3ccc(C(=O)O)cn3)CC1)C(C)(C)CCC2(C)C [LG 100268]
- glucose, insulin and triglyceride levels (ob/ob and db/db mice): reduction in glucose, insulin and triglyceride levels
- activation of RXR/PPAR heterodimers (RXR/PPAR heterodimers): activate RXR/PPAR heterodimers

SMILES: Cc1cc2c(cc1C13CC1CCC3=Cc1ccc(C(=O)O)cc1)C(C)(C)CCC2(C)C (stereo not shown) [Example 1, 4-[1-(3,5,5,8,8-Pentamethyl-5,6,7,8-tetrahydro-naphthalen-2-yl)-bicyclo[3.1.0]hex-2-ylidenemethyl]-benzoic Acid]
- melting point: 274.5 to 275.2 °C

SMILES: CC1=C(/C=C/C(C)=C\C=C\C(C)=C\C(=O)O)C(C)(C)CCC1 [9-cis retinoic acid]
- activation of RAR (RAR): activates both RXR and RAR
